Measurements from patent US11180474B2 (BRISTOL-MYERS SQUIBB COMPANY, priority 2016, dated 2021).

How the values were obtained:
[1] = biological target: T1, human TLR7 (Homo sapiens, UniProt Q9NYK1); assay: TLR7 inhibition reporter assay (HEK-Blue cells, SEAP reporter, gardiquimod stimulation); type: cell-based; details: HEK-Blue cells overexpressing human TLR7, gardiquimod 7.5 μM
T1 construct: host or cells: HEK-Blue cells
T1 sequence (Q9NYK1 27-1049): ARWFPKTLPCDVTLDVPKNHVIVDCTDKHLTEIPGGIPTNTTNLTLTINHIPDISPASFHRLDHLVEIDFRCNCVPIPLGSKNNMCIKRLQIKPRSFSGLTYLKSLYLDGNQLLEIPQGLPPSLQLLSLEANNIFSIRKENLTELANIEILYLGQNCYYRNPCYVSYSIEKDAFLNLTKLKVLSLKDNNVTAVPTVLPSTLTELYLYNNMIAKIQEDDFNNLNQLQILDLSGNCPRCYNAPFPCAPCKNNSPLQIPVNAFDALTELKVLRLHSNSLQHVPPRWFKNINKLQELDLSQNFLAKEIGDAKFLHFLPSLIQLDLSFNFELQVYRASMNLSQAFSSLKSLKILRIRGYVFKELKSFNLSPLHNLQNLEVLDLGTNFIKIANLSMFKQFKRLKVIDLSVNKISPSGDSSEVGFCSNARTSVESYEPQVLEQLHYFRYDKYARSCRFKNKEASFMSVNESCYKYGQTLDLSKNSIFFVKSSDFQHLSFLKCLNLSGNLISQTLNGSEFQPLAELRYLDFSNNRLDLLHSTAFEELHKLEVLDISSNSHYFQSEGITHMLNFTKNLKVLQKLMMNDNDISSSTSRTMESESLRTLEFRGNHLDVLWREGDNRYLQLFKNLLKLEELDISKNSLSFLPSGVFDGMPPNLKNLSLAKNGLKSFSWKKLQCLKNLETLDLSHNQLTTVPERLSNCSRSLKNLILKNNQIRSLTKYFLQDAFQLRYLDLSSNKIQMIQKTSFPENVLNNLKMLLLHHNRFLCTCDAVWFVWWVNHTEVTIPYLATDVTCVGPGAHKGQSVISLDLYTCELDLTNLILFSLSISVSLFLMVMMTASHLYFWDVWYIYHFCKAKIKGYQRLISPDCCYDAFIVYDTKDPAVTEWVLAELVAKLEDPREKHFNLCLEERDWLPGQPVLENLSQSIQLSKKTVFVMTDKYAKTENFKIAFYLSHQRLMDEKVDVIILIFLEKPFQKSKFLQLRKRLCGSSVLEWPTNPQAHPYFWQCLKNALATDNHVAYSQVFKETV
Summary of the method: (§1)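 In this cell reporter format, test compounds at 0.05 nM-50 μM final incubate 22 h with seeded cells (TLR7 15000, TLR8 20,000 per well). SEAP read-out by HEK-Blue Detection medium yields % inhibition relative to agonist/DMSO and known-inhibitor wells.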

[2] = biological target: T2, human TLR8 (Homo sapiens, UniProt Q9NR97); assay: TLR8 inhibition reporter assay (HEK-Blue cells, SEAP reporter, R848 stimulation); type: cell-based; details: HEK-Blue cells overexpressing human TLR8, R848 15.9 μM
T2 construct: host or cells: HEK-Blue cells
T2 sequence (Q9NR97 27-1041): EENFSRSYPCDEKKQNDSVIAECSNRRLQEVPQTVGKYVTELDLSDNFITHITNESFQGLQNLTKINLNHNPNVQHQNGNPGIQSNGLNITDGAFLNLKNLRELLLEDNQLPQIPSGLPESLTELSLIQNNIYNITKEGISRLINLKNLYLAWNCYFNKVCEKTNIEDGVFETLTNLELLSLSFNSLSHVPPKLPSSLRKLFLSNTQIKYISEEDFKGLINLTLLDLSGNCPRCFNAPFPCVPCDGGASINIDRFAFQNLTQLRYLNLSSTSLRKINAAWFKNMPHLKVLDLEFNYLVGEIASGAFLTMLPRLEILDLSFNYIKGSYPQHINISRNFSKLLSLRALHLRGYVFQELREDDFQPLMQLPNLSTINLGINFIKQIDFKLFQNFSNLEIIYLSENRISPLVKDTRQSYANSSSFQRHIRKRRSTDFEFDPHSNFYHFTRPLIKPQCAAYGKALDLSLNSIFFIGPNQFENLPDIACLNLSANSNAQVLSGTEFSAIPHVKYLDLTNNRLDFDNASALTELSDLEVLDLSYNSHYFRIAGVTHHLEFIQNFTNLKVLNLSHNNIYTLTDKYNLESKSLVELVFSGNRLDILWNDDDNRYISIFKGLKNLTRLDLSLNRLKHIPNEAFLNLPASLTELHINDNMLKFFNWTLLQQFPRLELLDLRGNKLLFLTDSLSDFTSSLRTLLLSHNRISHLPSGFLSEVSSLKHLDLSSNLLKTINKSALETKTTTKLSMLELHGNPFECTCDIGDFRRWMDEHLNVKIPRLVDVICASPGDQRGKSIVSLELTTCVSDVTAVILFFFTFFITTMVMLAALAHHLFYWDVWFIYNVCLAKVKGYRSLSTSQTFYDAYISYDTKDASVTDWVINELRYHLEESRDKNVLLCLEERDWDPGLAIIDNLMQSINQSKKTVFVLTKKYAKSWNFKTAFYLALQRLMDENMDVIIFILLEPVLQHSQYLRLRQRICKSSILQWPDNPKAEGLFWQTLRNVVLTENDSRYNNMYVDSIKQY
Summary of the method: as §1

Row | SMILES | IC50 [1] [nM] | IC50 [2] [nM]
1 | COc1ccc(-c2[nH]c3ccc(C4CCN(C(=O)CNC5CCCC5O)CC4)cc3c2C(C)C)cc1OC (centres unmarked) [Example 236, 1-(4-(2-(3,4-dimethoxyphenyl)-3-isopropyl-1H-indol-5-yl)piperidin-1-yl)-2-((2-hydroxycyclopentyl)amino)ethan-1-one] | 29 | 38
2 | COc1ccc(-c2[nH]c3ccc(C4CCN(C(=O)CNCCC(C)O)CC4)cc3c2C(C)C)cc1OC (centres unmarked) [Example 237, 1-(4-(2-(3,4-dimethoxyphenyl)-3-isopropyl-1H-indol-5-yl)piperidin-1-yl)-2-((3-hydroxybutyl)amino)ethan-1-one] | 15 | 22
3 | COc1ccc(-c2[nH]c3ccc(C4CCN(C(=O)CN5CCC(O)CC5)CC4)cc3c2C(C)C)cc1OC [Example 238, 1-(4-(2-(3,4-dimethoxyphenyl)-3-isopropyl-1H-indol-5-yl)piperidin-1-yl)-2-(4-hydroxypiperidin-1-yl) ethan-1-one] | 36 | 5
4 | COc1ccc(-c2[nH]c3ccc(C4CCN(C(=O)CN(C)CCO)CC4)cc3c2C(C)C)cc1OC [Example 242, 1-(4-(2-(3,4-dimethoxyphenyl)-3-isopropyl-1H-indol-5-yl)piperidin-1-yl)-2-((2-hydroxyethyl)(methyl)amino)ethan-1-one] | 23 | 14
5 | COc1ccc(-c2[nH]c3ccc(C4CCN(C(=O)CN5CCC(CO)CC5)CC4)cc3c2C(C)C)cc1OC [Example 243, 1-(4-(2-(3,4-dimethoxyphenyl)-3-isopropyl-1H-indol-5-yl)piperidin-1-yl)-2-(4-(hydroxymethyl)piperidin-1-yl)ethan-1-one] | 55 | 16
6 | COc1ccc(-c2[nH]c3ccc(C4CCN(C(=O)CNC5CCC(C(C)(C)O)CC5)CC4)cc3c2C(C)C)cc1OC (centres unmarked) [Example 245, 1-(4-(2-(3,4-dimethoxyphenyl)-3-isopropyl-1H-indol-5-yl)piperidin-1-yl)-2-((4-(2-hydroxypropan-2-yl)cyclohexyl)amino)ethan-1-one] | 26 | 26
7 | CCN(CC)C(=O)C1CCCN(CC(=O)N2CCC(c3ccc4[nH]c(-c5ccc(OC)c(OC)c5)c(C(C)C)c4c3)CC2)C1 (centres unmarked) [Example 247, 1-(2-(4-(2-(3,4-dimethoxyphenyl)-3-isopropyl-1H-indol-5-yl)piperidin-1-yl)-2-oxoethyl)-N,N-diethylpiperidine-3-carboxamide] | 40 | 38
8 | CCN(CC)C(=O)C1CCCN(CC(=O)N2CCC(c3ccc4[nH]c(-c5ccc(OC)c(OC)c5)c(C(C)C)c4c3)CC2)C1 (centres unmarked) [Example 248, 1-(2-(4-(2-(3,4-dimethoxyphenyl)-3-isopropyl-1H-indol-5-yl)piperidin-1-yl)-2-oxoethyl)-N,N-diethylpiperidine-3-carboxamide] | 33 | 22
9 | COc1ccc(-c2[nH]c3ccc(C4CCN(C(=O)CN5CCCC(CO)C5)CC4)cc3c2C(C)C)cc1OC (centres unmarked) [Example 249, 1-(4-(2-(3,4-dimethoxyphenyl)-3-isopropyl-1H-indol-5-yl)piperidin-1-yl)-2-(3-(hydroxymethyl)piperidin-1-yl)ethan-1-one] | 21 | 17
10 | COc1ccc(-c2[nH]c3ccc(C4CCN(C(=O)CNC[C@@H](F)C(C)(C)O)CC4)cc3c2C(C)C)cc1OC [Example 251, (R)-1-(4-(2-(3,4-dimethoxyphenyl)-3-isopropyl-1H-indol-5-yl)piperidin-1-yl)-2-((2-fluoro-3-hydroxy-3-methylbutyl)amino) ethan-1-one] | 372 | 750
11 | COc1ccc(-c2[nH]c3ccc(C4CCN(Cc5cncn5C)CC4)cc3c2C(C)C)cc1OC [Example 258, 2-(3,4-dimethoxyphenyl)-3-isopropyl-5-(1-((1-methyl-1H-imidazol-5-yl)methyl)piperidin-4-yl)-1H-indole] | 18 | 17
12 | COc1ccc(-c2[nH]c3ccc(C4CCN(Cc5cnn(C)c5)CC4)cc3c2C(C)C)cc1OC [Example 259, 2-(3,4-dimethoxyphenyl)-3-isopropyl-5-(1-((1-methyl-1H-pyrazol-4-yl)methyl)piperidin-4-yl)-1H-indole] | 40 | 11

Now those with a lower IC50 [1], led by results:

Row | IC50 [1] [nM] | IC50 [2] [nM] | SMILES
13 | 11 | 17 | COc1ccc(-c2[nH]c3ccc(C4CCN(C(=O)CN5CCCN(C)CC5)CC4)cc3c2C(C)C)cc1OC [Example 239, 1-(4-(2-(3,4-dimethoxyphenyl)-3-isopropyl-1H-indol-5-yl)piperidin-1-yl)-2-(4-methyl-1,4-diazepan-1-yl)ethan-1-one]
14 | 11 | 34 | COc1ccc(-c2[nH]c3ccc(C4CCN(C(=O)CN5CCN(C(C)C)CC5)CC4)cc3c2C(C)C)cc1OC [Example 240, 1-(4-(2-(3,4-dimethoxyphenyl)-3-isopropyl-1H-indol-5-yl)piperidin-1-yl)-2-(4-isopropylpiperazin-1-yl)ethan-1-one]
15 | 12 | 13 | COc1ccc(-c2[nH]c3ccc(C4CCN(C(=O)CN5CCC(N6CCN(C)CC6)CC5)CC4)cc3c2C(C)C)cc1OC [Example 241, 1-(4-(2-(3,4-dimethoxyphenyl)-3-isopropyl-1H-indol-5-yl)piperidin-1-yl)-2-(4-(4-methylpiperazin-1-yl)piperidin-1-yl)ethan-1-one]
16 | 6 | 16 | COc1ccc(-c2[nH]c3ccc(C4CCN(C(=O)CN5CCC(N(C)C)CC5)CC4)cc3c2C(C)C)cc1OC [Example 244, 1-(4-(2-(3,4-dimethoxyphenyl)-3-isopropyl-1H-indol-5-yl)piperidin-1-yl)-2-(4-(dimethylamino)piperidin-1-yl)ethan-1-one]
17 | 11 | 19 | COc1ccc(-c2[nH]c3ccc(C4CCN(C(=O)CNC5CCC(O)CC5)CC4)cc3c2C(C)C)cc1OC (centres unmarked) [Example 246, 1-(4-(2-(3,4-dimethoxyphenyl)-3-isopropyl-1H-indol-5-yl)piperidin-1-yl)-2-((4-hydroxycyclohexyl)amino)ethan-1-one]
18 | 10 | 19 | COc1ccc(-c2[nH]c3ccc(C4CCN(C(=O)C[C@H](C)N)CC4)cc3c2C(C)C)cc1OC [Example 253, (S)-3-amino-1-(4-(2-(3,4-dimethoxyphenyl)-3-isopropyl-1H-indol-5-yl)piperidin-1-yl)butan-1-one]
19 | 11 | 35 | CNCC(=O)N1CCC(c2ccc3[nH]c(-c4ccc(OC)c(OC)c4)c(C(C)C)c3c2)CC1 [Example 256, 1-(4-(2-(3,4-dimethoxyphenyl)-3-isopropyl-1H-indol-5-yl)piperidin-1-yl)-2-(methylamino)ethan-1-one]
